Laboratory results: US20250034216A1, “STEREOSELECTIVE COVALENT LIGANDS FOR ONCOGENIC AND IMMUNOLOGICAL PROTEINS” (The Scripps Research Institute, priority 2021, published 2025)

Experiments:
[1] = system: 20S core proteasomal complex; assay: SEC-MS elution profile; format: cell-based, human; details: 22Rv1 cells, 20 μM, 3 h
Description: Sample preparation: Cells (adherent: 15 cm dishes, suspension: 2 million cells/mL) were treated with electrophilic probes in situ for indicated times and concentrations (elaborated fragments: 20 μM, 3 h), washed with ice-cold PBS, and flash frozen in liquid nitrogen. Cell pellets were lysed by sonication (8 pulses, 40% power) in 600 μL ice-cold PBS supplemented with cOmplete protease inhibitors (1 tablet/10 mL of PBS), ultracentrifuged for 20 min at 100,000 g, then normalized to a standardized concentration (typically 1.5 to 2.5 mg/mL). Clarified lysate was injected into a Superdex 200 Increase 10/300 GL column attached to an AKTA pure FPLC system. Proteins were fractionated using an isocratic gradient (PBS) running at 0.5 mL/min into 5 fractions 2 mL wide, beginning at 8 mL and ending at 18 mL. Eluate was collected into 15 mL tubes containing 12 mL of acetone at 4C. […]
Data processing: Fractional distributions for each peptide-spectra match with a total TMT reporter ion intensity were calculated by dividing the reporter ion intensity for each TMT channel by the summed intensity across the 5 TMT channels corresponding to a single treatment condition (Equation 1). […] Euclidean distances (SE shift scores, Equation 2) were calculated using the average elution profile for each protein across replicates, combined by treatment condition and cell line. […]

[2] = system: p27; assay: anti-p27 western blot; format: cell-based, human; details: 22Rv1 cells, 24 h
[3] = biological target: T1, SF3B1 C1111 (Homo sapiens, UniProt O75533+Q7RTV0); assay: Parallel reaction monitoring of IA-DTB labeled SF3B1 peptides; format: binding; details: 22Rv1 cells
T1 construct: Cysteine engagement data from 22Rv1 cells treated; endogenous in cells; host or cells: 22Rv1
T1 sequence (O75533 whole entry): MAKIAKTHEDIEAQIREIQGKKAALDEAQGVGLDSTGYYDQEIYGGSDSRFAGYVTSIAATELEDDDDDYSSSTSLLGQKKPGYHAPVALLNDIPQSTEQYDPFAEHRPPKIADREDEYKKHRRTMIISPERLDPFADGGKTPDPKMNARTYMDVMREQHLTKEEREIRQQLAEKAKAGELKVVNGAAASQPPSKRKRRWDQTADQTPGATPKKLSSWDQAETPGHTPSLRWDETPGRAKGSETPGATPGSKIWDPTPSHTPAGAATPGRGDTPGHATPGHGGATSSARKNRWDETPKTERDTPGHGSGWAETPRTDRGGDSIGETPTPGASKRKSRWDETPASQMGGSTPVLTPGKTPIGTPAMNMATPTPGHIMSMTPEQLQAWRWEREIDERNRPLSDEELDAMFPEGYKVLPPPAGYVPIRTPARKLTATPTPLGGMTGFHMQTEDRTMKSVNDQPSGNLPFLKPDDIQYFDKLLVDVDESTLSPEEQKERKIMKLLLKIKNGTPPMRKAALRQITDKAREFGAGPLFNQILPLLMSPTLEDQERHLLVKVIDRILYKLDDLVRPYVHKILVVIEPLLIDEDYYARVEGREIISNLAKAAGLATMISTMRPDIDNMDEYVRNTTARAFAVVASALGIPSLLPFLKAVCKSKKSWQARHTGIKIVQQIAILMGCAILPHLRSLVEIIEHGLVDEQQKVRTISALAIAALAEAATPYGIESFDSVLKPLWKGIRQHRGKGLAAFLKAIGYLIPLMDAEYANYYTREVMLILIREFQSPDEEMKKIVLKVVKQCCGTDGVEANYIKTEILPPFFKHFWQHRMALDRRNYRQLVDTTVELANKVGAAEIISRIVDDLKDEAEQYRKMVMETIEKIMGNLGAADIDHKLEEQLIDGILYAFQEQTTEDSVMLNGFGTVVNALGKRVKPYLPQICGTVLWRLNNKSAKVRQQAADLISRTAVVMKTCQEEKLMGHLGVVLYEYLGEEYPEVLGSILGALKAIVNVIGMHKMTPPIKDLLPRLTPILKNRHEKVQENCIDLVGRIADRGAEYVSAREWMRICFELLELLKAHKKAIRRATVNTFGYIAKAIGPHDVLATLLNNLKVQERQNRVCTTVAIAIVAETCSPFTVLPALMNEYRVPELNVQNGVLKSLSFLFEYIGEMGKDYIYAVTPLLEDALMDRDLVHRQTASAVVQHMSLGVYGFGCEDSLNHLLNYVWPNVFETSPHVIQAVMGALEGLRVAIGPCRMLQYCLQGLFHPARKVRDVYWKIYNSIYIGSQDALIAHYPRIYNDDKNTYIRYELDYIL
T1 sequence (Q7RTV0 whole entry): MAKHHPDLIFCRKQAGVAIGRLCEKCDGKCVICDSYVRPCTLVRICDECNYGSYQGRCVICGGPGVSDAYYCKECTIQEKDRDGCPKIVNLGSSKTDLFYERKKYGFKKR
T1 sequence (Q15393 whole entry partner): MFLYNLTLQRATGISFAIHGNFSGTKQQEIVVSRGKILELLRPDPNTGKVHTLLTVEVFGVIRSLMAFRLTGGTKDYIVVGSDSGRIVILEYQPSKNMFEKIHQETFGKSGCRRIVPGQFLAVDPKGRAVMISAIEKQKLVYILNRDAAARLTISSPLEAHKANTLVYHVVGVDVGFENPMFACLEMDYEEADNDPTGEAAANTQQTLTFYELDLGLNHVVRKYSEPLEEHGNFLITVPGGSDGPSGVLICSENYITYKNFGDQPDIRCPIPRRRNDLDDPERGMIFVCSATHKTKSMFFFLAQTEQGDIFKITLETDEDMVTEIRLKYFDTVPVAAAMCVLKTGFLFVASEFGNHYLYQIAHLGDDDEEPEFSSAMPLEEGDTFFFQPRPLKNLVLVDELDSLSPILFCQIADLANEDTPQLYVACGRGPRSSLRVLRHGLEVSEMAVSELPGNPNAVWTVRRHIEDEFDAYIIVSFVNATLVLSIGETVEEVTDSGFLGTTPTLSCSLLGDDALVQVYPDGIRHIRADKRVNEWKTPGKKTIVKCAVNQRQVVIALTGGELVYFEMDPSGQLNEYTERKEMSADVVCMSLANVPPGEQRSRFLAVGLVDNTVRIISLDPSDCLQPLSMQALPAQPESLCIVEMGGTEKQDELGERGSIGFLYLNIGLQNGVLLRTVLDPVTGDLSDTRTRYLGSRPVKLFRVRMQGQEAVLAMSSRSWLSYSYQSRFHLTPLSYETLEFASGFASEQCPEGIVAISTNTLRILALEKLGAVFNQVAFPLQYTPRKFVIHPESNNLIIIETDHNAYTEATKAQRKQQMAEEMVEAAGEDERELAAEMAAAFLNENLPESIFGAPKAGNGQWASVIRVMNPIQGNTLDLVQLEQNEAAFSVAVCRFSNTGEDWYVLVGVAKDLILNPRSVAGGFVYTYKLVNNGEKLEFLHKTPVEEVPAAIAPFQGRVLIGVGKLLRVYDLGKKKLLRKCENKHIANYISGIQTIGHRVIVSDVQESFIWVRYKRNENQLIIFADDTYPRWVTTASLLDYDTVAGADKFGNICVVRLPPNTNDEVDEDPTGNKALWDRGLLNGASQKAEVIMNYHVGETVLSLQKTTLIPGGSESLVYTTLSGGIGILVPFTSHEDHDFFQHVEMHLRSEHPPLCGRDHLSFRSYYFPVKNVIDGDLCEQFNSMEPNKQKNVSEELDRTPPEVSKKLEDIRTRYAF
T1 sequence (Q9BWJ5 whole entry partner): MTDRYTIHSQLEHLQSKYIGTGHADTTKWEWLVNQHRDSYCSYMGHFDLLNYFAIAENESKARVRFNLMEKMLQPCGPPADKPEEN
Description: Dry peptide samples were reconstituted in a water/acetonitrile (85:15) mixture containing 0.1% formic acid (100 μl) and 15 μl was injected on to an EASY-Spray C18 loading column (5 μm particle size, 100 μm×2 cm; Fisher Scientific, DX164564) and resolved on a custom analytical column (2 μM particle size, 75 μm×15 cm) using a Dionex Ultimate 3000 nano-LC (Thermo Fisher Scientific). Peptides were separated over a 60-min gradient of 15 to 33% acetonitrile (0.1% formic acid) and analyzed on a Q-Exactive instrument (Thermo Fisher Scientific) using a parallel reaction monitoring method targeting the SF3B1 peptide containing C1111 (amino acids 1110-1149, missed tryptic, +3 charge state). Selected precursor ions were isolated and fragmented by high-energy collision dissociation and fragments were detected in the Orbitrap at 17,500 resolution.
Raw data files were uploaded analyzed in Skyline (v.21.1.0.278) to determine the abundance of each peptide in vehicle-treated samples relative to inhibitor-treated samples. Peptide quantification was performed by calculating the sum of the peak areas corresponding to six fragment ions from each peptide. The peptides and fragment ions were preselected from in-house reference spectral libraries acquired in data-dependent acquisition mode to identify authentic spectra for each peptide.

Row | SMILES | SEC migration of 20S core proteasomal complex subunits [1] | p27 expression [2] | IA-DTB labeling of other cysteines in SF3B1 [3] | IA-DTB reaction with SF3B1 C1111 ([3]; 20 μM, 24 h)
1 | C=CC(=O)N1C[C@H](c2ccc(Br)cc2)[C@@H]1C(=O)Nc1cccc2cccnc12 [MY-1B, (2R,3S)-1-acryloyl-3-(4-bromophenyl)-N-(quinolin-8-yl)azetidine-2-carboxamide] | unaffected |  |  | 
2 | C=CC(=O)N1[C@H](c2ccc3c(c2)OCO3)c2[nH]c3ccccc3c2C[C@H]1C(=O)N1CCOCC1 [WX-02-23, 1-((1R,3S)-1-(benzo[d][1,3]dioxol-S-yl)-3-(morpholine-4-carbonyl)-1,3,4,9-tetrahydro-2H-pyrido [3,4-b]indol-2-yl)prop-2-en-1-one] |  | induced expression of p27 | did not affect other cysteines in SF3B1 | stereoselectively blocked
